Here are results for 1 substance from PMC4892293 (Drug Design, Development and Therapy, 2016).

This assay has as its target T1, human recombinant PPARγ (Homo sapiens, UniProt P37231).
T1 sequence (P37231 1-505): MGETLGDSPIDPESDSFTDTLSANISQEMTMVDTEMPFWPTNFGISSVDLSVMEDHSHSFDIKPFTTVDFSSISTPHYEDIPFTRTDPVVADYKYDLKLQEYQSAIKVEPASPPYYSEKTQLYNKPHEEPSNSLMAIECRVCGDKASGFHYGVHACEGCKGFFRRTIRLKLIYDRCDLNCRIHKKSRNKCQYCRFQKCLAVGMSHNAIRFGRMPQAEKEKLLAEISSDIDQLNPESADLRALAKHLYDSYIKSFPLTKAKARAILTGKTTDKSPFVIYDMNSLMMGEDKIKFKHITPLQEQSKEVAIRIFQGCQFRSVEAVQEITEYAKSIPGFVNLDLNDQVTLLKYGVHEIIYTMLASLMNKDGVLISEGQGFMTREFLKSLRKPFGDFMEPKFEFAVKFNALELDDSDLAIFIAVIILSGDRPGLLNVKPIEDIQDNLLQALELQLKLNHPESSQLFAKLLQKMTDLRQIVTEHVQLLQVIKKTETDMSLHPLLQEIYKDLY
In words: FP-based PPARγ ligand screening assay. Conditions: concentration of 10.0 μM; Figure 2. The class given is binding.

On to “4-((5-(4-Chlorophenyl)-4-methylthiazol-2-yl)amino)-4-oxobutanoic acid [Compound 4f]”, for which the “agonistic activity in primary FP screening” value is recorded as “unable to promote agonistic activity”.
